The values that follow are results of earlier work, collected in patent publication US20110236508A1, “L-ARGININE-BASED FORMULATION FOR ORAL ABSORPTION” (priority 2008, published 2011).

For data set [1] the following is noted: 24 hypercholesterolemic patients, 14 g/day for 12 weeks.
Data set [2] has as its system peripheral arterial disease. To be noted: 8 g, bid, 14 days.
The subject of another data set is anginal patients. To be noted: 6 g/day.
The subject of a further data set is mice deficient in Apo-E. To be noted: 6% L-arginine drinking solution.
Another data set has as its system coronary artery disease. To be noted: 9 g/day orally for 6 months.
Data set [3] concerns coronary endothelial dysfunction. To be noted: oral 3 g TID, after 6 months.

As to `N=C(N)NCCC[C@H](N)C(=O)O` [L-arginine], the adverse effects result in data set [1] is recorded as “no reports of any adverse effects”. Also, the “flow-mediated dilation (FMD) of the brachial artery” value in the data set on brachial artery (8 g p.o. two times daily for 14 days, 12 healthy old subjects, p<0.0001) is 5.7+/−1.2%. Also, the “plasma levels of L-arginine” value in the data set on brachial artery (after 8 g p.o. two times daily for 14 days, versus 57.4+/−5.0) is 114.9 ± 11.6 µM. Further, in the data set with brachial artery (during treatment, 8 g p.o. two times daily for 14 days), the ADMA plasma concentrations entry is on record as “remained unchanged”. Besides, in data set [2], the “improvement in walking distance” value is on record as 150%. Further, in the data set on anginal patients, the exercise tolerance entry was “improved” and the “time to 1 mm ST-segment depression during exercise-stress testing” value was “increased”. Also, the “increase in treadmill exercise performance” value with mice deficient in Apo-E is on record as 61%. Further, in the data set on coronary artery disease, the “decrease in anginal episodes” value is listed as 70% and the “improvement of acetylcholine-induced coronary vascular relaxation” value is recorded as 149%. In data set [3] (compared with placebo), the “patients' symptoms scores” value is “improvement” and the plasma endothelin concentrations entry is recorded as “decrease”. In addition, the “coronary blood flow in response to acetylcholine” value in data set [3] (P<0.05 versus placebo) is listed as 149±20%.
